Organism: Rattus norvegicus
Assay: Open TG-GATES - Regimen: Single
Type: toxicity, organism-based, Sprague-Dawley
Design: regimen Single, gender Male, age 6 weeks
Conditions: in vivo, po, 2 mg/kg, route gavage, dose level Low; for APTT / Bas / Eos / Fbg / Hb / Lym / MCH / MCHC / MCV / Mono / Neu / PT / Plat / RBC / Ret / WBC: tissue Blood; for KIDNEY_L / KIDNEY_R / KIDNEY_TOTAL: tissue Kidney; for LIVER: tissue Liver; for ALP / ALT / AST / BUN / CRE / Ca / Cl / DBIL / GLC / IP / K / LDH / Na / PL / RALB / TBIL / TC / TG / TP / gamma-GTP: tissue Plasma

OCCN1CCN(CCCN2c3ccccc3Sc3ccc(C(F)(F)F)cc32)CC1 [FLUPHENAZINE]
TERMINAL_BW (3 h): 193.4 g | APTT (3 h): 16.5 s | Bas (3 h): 0% | Eos (3 h): 0.8% | Fbg (3 h): 231.2 mg/dL | Hb (3 h): 13.2 g/dL | Lym (3 h): 76.6% | MCH (3 h): 21.9 pg | MCHC (3 h): 33.2% | MCV (3 h): 65.9 fL | Mono (3 h): 8.2% | Neu (3 h): 14.6% | PT (3 h): 12.5 s | Plat (3 h): 111 x10_4/uL | RBC (3 h): 605.2 x10_4/ul | Ret (3 h): 7.9% | WBC (3 h): 105.8 x10_2/uL | KIDNEY_L (3 h): 0.9 g | KIDNEY_R (3 h): 0.9 g | KIDNEY_TOTAL (3 h): 1.8 g | LIVER (3 h): 8.9 g | ALP (3 h): 678.4 IU/L | ALT (3 h): 29.6 IU/L | AST (3 h): 56.4 IU/L | BUN (3 h): 10.8 mg/dL | CRE (3 h): 0.5 mg/dL | Ca (3 h): 10.5 mg/dL | Cl (3 h): 105.2 meq/L | DBIL (3 h): 0.012 mg/dL | GLC (3 h): 193.4 mg/dL | IP (3 h): 10.4 mg/dL | K (3 h): 4.8 meq/L | LDH (3 h): 84 IU/L | Na (3 h): 137.8 meq/L | PL (3 h): 148 mg/dL | RALB (3 h): 3.9 g/dL | TBIL (3 h): 0.3 mg/dL | TC (3 h): 88.8 mg/dL | TG (3 h): 40 mg/dL | TP (3 h): 5.6 g/dL | gamma-GTP (3 h): 2.4 IU/L | TERMINAL_BW (6 h): 197 g | APTT (6 h): 16.5 s | Bas (6 h): 0% | Eos (6 h): 0.8% | Fbg (6 h): 220.8 mg/dL | Hb (6 h): 13 g/dL | Lym (6 h): 75.4% | MCH (6 h): 21.5 pg | MCHC (6 h): 33% | MCV (6 h): 65.3 fL | Mono (6 h): 8.6% | Neu (6 h): 15.6% | PT (6 h): 12.4 s | Plat (6 h): 113.3 x10_4/uL | RBC (6 h): 606.4 x10_4/ul | Ret (6 h): 8.7% | WBC (6 h): 86.8 x10_2/uL | KIDNEY_L (6 h): 0.9 g | KIDNEY_R (6 h): 0.9 g | KIDNEY_TOTAL (6 h): 1.8 g | LIVER (6 h): 8.5 g | ALP (6 h): 708.4 IU/L | ALT (6 h): 32.4 IU/L | AST (6 h): 57.2 IU/L | BUN (6 h): 10.2 mg/dL | CRE (6 h): 0.5 mg/dL | Ca (6 h): 10.2 mg/dL | Cl (6 h): 105.8 meq/L | DBIL (6 h): 0.002 mg/dL | GLC (6 h): 184.2 mg/dL | IP (6 h): 10.2 mg/dL | K (6 h): 4.8 meq/L | LDH (6 h): 84.8 IU/L | Na (6 h): 136.8 meq/L | PL (6 h): 150.6 mg/dL | RALB (6 h): 3.7 g/dL | TBIL (6 h): 0.4 mg/dL | TC (6 h): 92.4 mg/dL | TG (6 h): 33.6 mg/dL | TP (6 h): 5.3 g/dL | gamma-GTP (6 h): 2.2 IU/L | TERMINAL_BW (9 h): 192.1 g | APTT (9 h): 16.7 s | Bas (9 h): 0% | Eos (9 h): 0.6% | Fbg (9 h): 223 mg/dL | Hb (9 h): 13.1 g/dL | Lym (9 h): 74.2% | MCH (9 h): 21.6 pg | MCHC (9 h): 33% | MCV (9 h): 65.5 fL | Mono (9 h): 6.6% | Neu (9 h): 19% | PT (9 h): 12.3 s | Plat (9 h): 113.3 x10_4/uL | RBC (9 h): 609.2 x10_4/ul | Ret (9 h): 7.9% | WBC (9 h): 62.2 x10_2/uL | KIDNEY_L (9 h): 0.9 g | KIDNEY_R (9 h): 0.9 g | KIDNEY_TOTAL (9 h): 1.8 g | LIVER (9 h): 8.1 g | ALP (9 h): 829.8 IU/L | ALT (9 h): 27.4 IU/L | AST (9 h): 54.4 IU/L | BUN (9 h): 9 mg/dL | CRE (9 h): 0.5 mg/dL | Ca (9 h): 9.9 mg/dL | Cl (9 h): 104.4 meq/L | DBIL (9 h): 0.022 mg/dL | GLC (9 h): 176.8 mg/dL | IP (9 h): 10 mg/dL | K (9 h): 4.5 meq/L | LDH (9 h): 81.6 IU/L | Na (9 h): 137.2 meq/L | PL (9 h): 135.4 mg/dL | RALB (9 h): 3.6 g/dL | TBIL (9 h): 0.3 mg/dL | TC (9 h): 79.4 mg/dL | TG (9 h): 33.2 mg/dL | TP (9 h): 5.3 g/dL | gamma-GTP (9 h): 2.2 IU/L | TERMINAL_BW (24 h): 213 g | APTT (24 h): 17 s | Bas (24 h): 0% | Eos (24 h): 0.8% | Fbg (24 h): 209.8 mg/dL | Hb (24 h): 13.1 g/dL | Lym (24 h): 86.2% | MCH (24 h): 21.7 pg | MCHC (24 h): 33.2% | MCV (24 h): 65.4 fL | Mono (24 h): 4% | Neu (24 h): 9.2% | PT (24 h): 12.2 s | Plat (24 h): 117 x10_4/uL | RBC (24 h): 605.6 x10_4/ul | Ret (24 h): 7.7% | WBC (24 h): 112.3 x10_2/uL | KIDNEY_L (24 h): 0.9 g | KIDNEY_R (24 h): 0.9 g | KIDNEY_TOTAL (24 h): 1.9 g | LIVER (24 h): 10.8 g | ALP (24 h): 934.6 IU/L | ALT (24 h): 32.6 IU/L | AST (24 h): 56.6 IU/L | BUN (24 h): 22.2 mg/dL | CRE (24 h): 0.5 mg/dL | Ca (24 h): 11 mg/dL | Cl (24 h): 104.2 meq/L | DBIL (24 h): 0.014 mg/dL | GLC (24 h): 178.8 mg/dL | IP (24 h): 7.5 mg/dL | K (24 h): 5.1 meq/L | LDH (24 h): 92.8 IU/L | Na (24 h): 136.6 meq/L | PL (24 h): 166.6 mg/dL | RALB (24 h): 4.1 g/dL | TBIL (24 h): 0.3 mg/dL | TC (24 h): 82.6 mg/dL | TG (24 h): 139.2 mg/dL | TP (24 h): 6 g/dL | gamma-GTP (24 h): 1.6 IU/L

Source: ChEMBL document CHEMBL3885861, “Open TG-GATES”
